Assays:
A2780 ovarian cells [1] = test: A2780 Ovarian Cell Proliferation Assay in Lipid Reduced Medium, without Palmitate; format: cell-based; settings: Homo sapiens, A2780; lipid reduced medium, without palmitate, 96 h, MTT; read-out: Proliferation A2780 w/o Palmitate pIC50 (converted)
In short: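 A2780 cells were seeded in 10% FCS medium and switched next day to 10% lipid-reduced serum without palmitate. Compounds at 0.01–30 μM were added with 0.2% DMSO, 0.2% fatty-acid-free BSA and 0.25% ethanol final. After 96 h, MTT absorbance at 544 nm was normalized to plate controls, and IC50/pIC50 came from a 4-parameter logistic fit.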

[2] = target: T1, FASN Keto-reductase Domain (Homo sapiens, UniProt P49327); test: Fatty Acid Synthase Keto-Reductase Domain (FASN KR) Inhibition; format: biochemical; settings: mean where tested more than once; read-out: FASN K-R Domain pIC50 (converted)
T1 construct: 10 μL hFASN enzyme (full length, 300 ng, purified in house) and 360 μM NADPH; made in house
In short: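 Keto-reductase activity followed as NADPH consumption (A340 drop between 0 and 20 min, room temperature) using in-house full-length hFASN, 360 μM NADPH and ethyl acetoacetate substrate (180 mM stock), pH 7.5 phosphate buffer.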

[3] = target: T2, hFASN enzyme (full length) (Homo sapiens, UniProt P49327); test: Fatty Acid Synthase (FASN) Inhibition Scintillation Proximity Assay; format: biochemical; settings: for IC50: mean where tested more than once, ~ = standard error of pIC50 larger than 0.5; for inhibition at 10 µM: read-out: FASN % Effect @1E−05M
T2 construct: 10 μL hFASN enzyme (full length, 300 ng, purified in house); made in house
In short: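 Eight compound concentrations (0.01–30 μM) tested in pH 7.5 phosphate buffer with DTT; human full-length enzyme converted [3H]-acetyl-CoA plus malonyl-CoA, with NADPH, over 60 min at room temperature. Hydrophobic [3H]-palmitate detected by bead proximity scintillation imaging; control-normalised data fitted for IC50/pIC50.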

A2780 ovarian cells [4] = test: A2780 Ovarian Cell Proliferation Assay in Lipid Reduced Medium, with Palmitate (control); format: cell-based; settings: Homo sapiens, A2780; lipid reduced medium, 25 μM palmitate, 96 h, MTT; read-out: Proliferation A2780 with Palmitate pIC50 (converted)
In short: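 Read-out was MTT absorbance at 544 nm after 96 h at 37 °C. Cells grown overnight in RPMI1640/10% FCS were moved to 10% lipid-reduced serum with compound plus palmitate (final 25 μM, 0.2% fatty-acid-free BSA, 0.2% DMSO). IC50 came from least-squares curve fitting, expressed as −log(IC50).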

T2 sequence (P49327 whole entry): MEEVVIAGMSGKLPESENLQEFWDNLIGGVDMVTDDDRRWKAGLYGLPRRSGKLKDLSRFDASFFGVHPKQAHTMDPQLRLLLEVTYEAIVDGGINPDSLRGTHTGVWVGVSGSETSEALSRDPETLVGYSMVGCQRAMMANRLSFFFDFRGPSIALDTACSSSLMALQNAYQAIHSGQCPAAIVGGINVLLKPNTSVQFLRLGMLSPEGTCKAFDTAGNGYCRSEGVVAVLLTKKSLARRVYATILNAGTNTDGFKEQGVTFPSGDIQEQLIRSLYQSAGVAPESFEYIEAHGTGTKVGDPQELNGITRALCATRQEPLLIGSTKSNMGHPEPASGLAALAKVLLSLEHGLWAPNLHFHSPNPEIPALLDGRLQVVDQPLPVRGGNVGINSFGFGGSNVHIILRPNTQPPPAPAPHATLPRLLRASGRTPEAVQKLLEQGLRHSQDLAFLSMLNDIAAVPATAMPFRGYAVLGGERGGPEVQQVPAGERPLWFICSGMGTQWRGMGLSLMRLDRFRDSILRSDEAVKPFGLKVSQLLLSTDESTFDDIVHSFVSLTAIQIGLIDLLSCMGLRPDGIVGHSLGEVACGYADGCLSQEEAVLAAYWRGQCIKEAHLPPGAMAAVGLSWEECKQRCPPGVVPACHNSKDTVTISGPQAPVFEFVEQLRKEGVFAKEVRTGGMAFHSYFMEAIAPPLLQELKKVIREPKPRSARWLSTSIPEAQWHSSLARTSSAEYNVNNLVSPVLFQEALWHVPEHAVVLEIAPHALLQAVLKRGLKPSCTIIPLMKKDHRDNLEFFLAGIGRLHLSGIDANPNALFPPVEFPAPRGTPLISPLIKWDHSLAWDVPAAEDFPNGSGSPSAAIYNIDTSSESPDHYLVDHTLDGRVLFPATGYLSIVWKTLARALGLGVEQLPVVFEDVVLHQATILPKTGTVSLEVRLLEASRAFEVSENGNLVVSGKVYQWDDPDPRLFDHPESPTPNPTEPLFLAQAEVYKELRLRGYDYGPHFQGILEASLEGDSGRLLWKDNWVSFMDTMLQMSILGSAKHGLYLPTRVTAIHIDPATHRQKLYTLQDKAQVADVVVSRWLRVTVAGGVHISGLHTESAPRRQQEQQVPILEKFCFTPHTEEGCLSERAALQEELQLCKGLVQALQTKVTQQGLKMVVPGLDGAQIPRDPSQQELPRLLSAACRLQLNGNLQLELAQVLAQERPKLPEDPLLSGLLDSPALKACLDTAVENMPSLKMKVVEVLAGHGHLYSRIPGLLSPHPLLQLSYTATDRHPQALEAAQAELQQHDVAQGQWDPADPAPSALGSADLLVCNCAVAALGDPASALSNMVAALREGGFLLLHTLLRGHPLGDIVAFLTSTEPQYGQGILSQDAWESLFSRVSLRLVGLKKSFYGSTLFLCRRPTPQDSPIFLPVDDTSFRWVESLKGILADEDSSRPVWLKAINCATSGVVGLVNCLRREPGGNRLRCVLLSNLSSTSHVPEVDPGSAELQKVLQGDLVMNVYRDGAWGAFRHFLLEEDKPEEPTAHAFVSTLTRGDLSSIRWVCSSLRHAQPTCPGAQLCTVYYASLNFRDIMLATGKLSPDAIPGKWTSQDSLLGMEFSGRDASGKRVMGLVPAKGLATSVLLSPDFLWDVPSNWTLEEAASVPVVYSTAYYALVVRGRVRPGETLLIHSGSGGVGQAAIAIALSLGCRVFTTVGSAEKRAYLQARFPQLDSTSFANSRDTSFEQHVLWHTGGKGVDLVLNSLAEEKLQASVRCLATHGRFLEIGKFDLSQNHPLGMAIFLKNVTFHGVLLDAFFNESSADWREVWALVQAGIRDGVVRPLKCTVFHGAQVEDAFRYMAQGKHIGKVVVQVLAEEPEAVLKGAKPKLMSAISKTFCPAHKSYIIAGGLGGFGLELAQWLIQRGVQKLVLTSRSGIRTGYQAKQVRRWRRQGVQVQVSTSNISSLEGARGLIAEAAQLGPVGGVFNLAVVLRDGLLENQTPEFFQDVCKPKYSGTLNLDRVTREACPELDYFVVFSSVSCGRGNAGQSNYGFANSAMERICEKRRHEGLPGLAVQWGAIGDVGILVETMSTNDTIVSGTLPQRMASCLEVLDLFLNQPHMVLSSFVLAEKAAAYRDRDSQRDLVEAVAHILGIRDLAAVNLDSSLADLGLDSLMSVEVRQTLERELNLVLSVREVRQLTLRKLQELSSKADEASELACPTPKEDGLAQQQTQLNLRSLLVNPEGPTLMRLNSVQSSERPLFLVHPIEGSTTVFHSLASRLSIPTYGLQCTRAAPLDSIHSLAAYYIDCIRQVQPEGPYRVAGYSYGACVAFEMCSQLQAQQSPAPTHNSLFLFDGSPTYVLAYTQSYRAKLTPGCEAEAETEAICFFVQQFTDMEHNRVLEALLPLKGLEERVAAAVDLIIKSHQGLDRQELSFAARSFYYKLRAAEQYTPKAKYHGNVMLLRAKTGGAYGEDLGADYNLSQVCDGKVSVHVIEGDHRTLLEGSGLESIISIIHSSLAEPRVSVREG
T1 sequence (P49327 whole entry, the tested form may be a part): as the sequence (P49327 whole entry) above

Compound	IC50 (A2780 ovarian cells [1])	IC50 [2]	IC50 [3]	inhibition at 10 µM [3]	IC50 (A2780 ovarian cells [4])
CCCN1CC(C(=O)Nc2cc(C(=O)N3CCC(c4ccc(-c5cnn(C)c5)cc4)CC3)ccc2C)C1 [Compound 208, N-(2-methyl-5-(4-(4-(1-methyl-1H-pyrazol-4-yl)phenyl)piperidine-1-carbonyl)phenyl)-1-propylazetidine-3-carboxamide]	275 nM	631 nM	269 nM	101%	> 10000 nM
Cc1ccc(C(=O)N2CCC(c3ccc(-c4cnn(C)c4)cc3)CC2)cc1NC(=O)c1ccc(F)cc1F [Compound 131, 2,4-difluoro-N-(2-methyl-5-(4-(4-(1-methyl-1H-pyrazol-4-yl)phenyl)piperidine-1-carbonyl)phenyl)benzamide]	126 nM	107 nM	51.3 nM	109%	> 6170 nM
Cc1ccc(C(=O)N2CC[C@H](c3ccc(-c4ccnn4C)cc3)[C@H](C)C2)cc1NC(=O)c1ccc(NC(C)C)nc1 (racemic) [Compound #76, (±)-6-(Isopropylamino)-N-(2-methyl-5-((3S,4S)-3-methyl-4-(4-(1-methyl-1H-pyrazol-5-yl)phenyl)piperidine-1-carbonyl)phenyl)nicotinamide]	1050 nM	1380 nM	631 nM	91%	2000 nM
Cc1ccc(C(=O)N2CCC(c3ccc(-c4cnn(-c5ccncc5)c4)cc3)CC2)cc1NC(=O)c1ccc(NC(C)C)nc1 [Compound 272, 6-(isopropylamino)-N-(2-methyl-5-(4-(4-(1-(pyridin-4-yl)-1H-pyrazol-4-yl)phenyl)piperidine-1-carbonyl)phenyl)nicotinamide]	43.7 nM	105 nM	29.5 nM	112%	1380 nM
Cc1ccc(C(=O)N2CCC(c3ncc(-c4cnn(C)c4)cn3)CC2)cc1NC(=O)c1ccc(Cl)nc1 [Compound 257, 6-chloro-N-(2-methyl-5-(4-(5-(1-methyl-1H-pyrazol-4-yl)pyrimidin-2-yl)piperidine-1-carbonyl)phenyl)nicotinamide]	891 nM	2040 nM	617 nM	95%	> 10000 nM
CC(C)Nc1ccc(C(=O)Nc2cc(C(=O)N3CC[C@H](c4ccc(-c5ccnn5C)cc4)[C@@H](O)C3)ccc2Cl)cn1 (racemic) [Compound #77, (±)-N-(2-chloro-5-((3R,4R)-3-hydroxy-4-(4-(1-methyl-1H-pyrazol-5-yl)phenyl)piperidine-1-carbonyl)phenyl)-6-(isopropylamino)nicotinamide]	851 nM	1070 nM	178 nM	105%	15100 nM
Cc1ccc(C(=O)N2CCC(c3ccc(-c4cnn(C)c4)cc3)CC2)cc1NC(=O)C1CCN(CC(C)(C)C)CC1 [Compound 178, N-(2-methyl-5-(4-(4-(1-methyl-1H-pyrazol-4-yl)phenyl)piperidine-1-carbonyl)phenyl)-1-neopentylpiperidine-4-carboxamide]	26.9 nM	58.9 nM	45.7 nM	106%	> 10000 nM
Cc1ccc(C(=O)N2CCC(c3ccc(-c4cnn(C)c4)cc3)C2)cc1NC(=O)c1ccc(Cl)nc1 (stereo not shown) [Compound 203, 6-chloro-N-(2-methyl-5-(3-(4-(1-methyl-1H-pyrazol-4-yl)phenyl)pyrrolidine-1-carbonyl)phenyl)nicotinamide]	372 nM	977 nM	282 nM	97%	> 10000 nM
Cc1ccc(C(=O)N2CCC(c3ccc(-c4cn[nH]c4)cc3)CC2)cc1NC(=O)c1ccc(NC(C)C)nc1 [Compound 42, N-(5-(4-(4-(1H-pyrazol-4-yl)phenyl)piperidine-1-carbonyl)-2-methylphenyl)-6-(isopropylamino)nicotinamide]	102 nM	34.7 nM	21.4 nM	106%	> 10000 nM
Cc1ccc(C(=O)N2CCC(c3ccc(-c4cnn(C)c4)cc3)CC2)cc1NC(=O)c1ccc2[nH]ccc2c1 [Compound 160, N-(2-methyl-5-(4-(4-(1-methyl-1H-pyrazol-4-yl)phenyl)piperidine-1-carbonyl)phenyl)-1H-indole-5-carboxamide]	28.2 nM	91.2 nM	40.7 nM	100%	6920 nM
Cc1ccc(C(=O)N2CCC(c3ccc(-c4cnn(C)c4)cc3)CC2)cc1NC(=O)C1CCOCC1 [Compound 104, N-(2-methyl-5-(4-(4-(1-methyl-1H-pyrazol-4-yl)phenyl)piperidine-1-carbonyl)phenyl)tetrahydro-2H-pyran-4-carboxamide]	70.8 nM	87.1 nM	42.7 nM	104%	> 10000 nM
Cc1ccc(C(=O)Nc2cc(C(=O)N3CCC(c4ccc(-c5cnn(C)c5)cc4)CC3)ccc2C)s1 [Compound 157, 5-methyl-N-(2-methyl-5-(4-(4-(1-methyl-1H-pyrazol-4-yl)phenyl)piperidine-1-carbonyl)phenyl)thiophene-2-carboxamide]	115 nM	120 nM	42.7 nM	104%	> 10000 nM
Cc1ccc(C(=O)N2CC(c3ccc(-c4ccc5cnccc5c4)cc3)C2)cc1NC(=O)c1ccc(NC(C)C)nc1 [Compound 29, 6-(isopropylamino)-N-(5-(3-(4-(isoquinolin-6-yl)phenyl)azetidine-1-carbonyl)-2-methylphenyl)nicotinamide]	174 nM	29.5 nM	33.9 nM	103%	> 15100 nM
Cc1ccc(C(=O)N2CCC(c3ccc(-c4cnn(C)c4)cc3)CC2)cc1NC(=O)c1ccc(Cl)cc1 [Compound #100, 4-chloro-N-(2-methyl-5-(4-(4-(1-methyl-1H-pyrazol-4-yl)phenyl)piperidine-1-carbonyl)phenyl)benzamide]	93.3 nM	44.7 nM	16.2 nM	111%	> 10000 nM
Cc1ccc(C(=O)N2CC(c3ccc(-c4ccncc4)cc3)C2)cc1NC(=O)c1ccc(Cl)nc1 [Compound 3, 6-chloro-N-(2-methyl-5-(3-(4-(pyridin-4-yl)phenyl)azetidine-1-carbonyl)phenyl)nicotinamide]	138 nM	64.6 nM	25.7 nM	106%	5250 nM
Cc1ccc(C(=O)N2CCC(c3ccc(-c4cnn(C)c4)cn3)CC2)cc1NC(=O)c1ccc(Cl)nc1 [Compound 263, 6-chloro-N-(2-methyl-5-(4-(5-(1-methyl-1H-pyrazol-4-yl)pyridin-2-yl)piperidine-1-carbonyl)phenyl)nicotinamide]	170 nM	479 nM	91.2 nM	111%	> 10000 nM
Cc1ccc(C(=O)N2CCC(c3ccc(-c4cnn(CCN(C)C)c4)cc3)CC2)cc1NC(=O)c1ccc(NC(C)C)nc1 [Compound 253, N-(5-(4-(4-(1-(2-(dimethylamino)ethyl)-1H-pyrazol-4-yl)phenyl)piperidine-1-carbonyl)-2-methylphenyl)-6-(isopropylamino)nicotinamide]	~257 nM	1230 nM	316 nM	104%	~1860 nM
